Source: the supplement of paper PMC10702517
± gives the standard deviation.

Experiments:
[1] = chemical recovery into PDMS from spiked human plasma; higher = better extraction; conditions: pooled human plasma, extraction method: PES with PDMS
[2] = chemical recovery by SPE of plasma after PDMS sampling; higher = better extraction; conditions: pooled human plasma, extraction method: HLB SPE of plasma after PES
[3] = chemical recovery from spiked human plasma; higher = better extraction; conditions: pooled human plasma
[4] = extraction method: SPE only (HLB 96-well)
[5] = extraction method: SPE only (HLB 96-well), PES comparison experiment
[6] = extraction method: solvent precipitation (ACN + hexane)
[7] = extraction method: PES+SPE (3 d PDMS equilibration then HLB SPE)
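For chemical recovery by SPE of plasma after PDMS sampling in this document: over 400 spiked chemicals quantified by LC-HRMS or GC-HRMS via internal standard calibration, recovery relative to spike mix added to unspiked plasma extract to correct matrix effects.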

## c1ccc2c(c1)=c1ccc3c4c(ccc=2c14)=c1ccccc1=3 [Indeno(1,2,3-cd)fluoranthene]
[1]; equilibration time (d): 1
  chemical recovery into PDMS: 70.5 ± 4%
[1]; equilibration time (d): 3
  chemical recovery into PDMS: 79.7 ± 9.8%
[1]; equilibration time (d): 6
  chemical recovery into PDMS: 77.5 ± 5.2%
[2]; equilibration time (d): 6
  chemical recovery by SPE of plasma: 0.409 ± 0.71%

## CCCCCCCCCCCCCC[N+](C)(C)Cc1ccccc1 [Benzyldimethyltetradecylammonium]
[1]; equilibration time (d): 6
  chemical recovery into PDMS: 0.508 ± 1%
[3]; [4]
  chemical recovery: 66.8 ± 24%

## CC(C)OC(=O)C(C)(C)Oc1ccc(C(=O)c2ccc(Cl)cc2)cc1 [Fenofibrate]
[1]; equilibration time (d): 1
  chemical recovery into PDMS: 47.1 ± 4.2%
[1]; equilibration time (d): 3
  chemical recovery into PDMS: 50.6 ± 5.3%
[1]; equilibration time (d): 6
  chemical recovery into PDMS: 48 ± 3.2%
[3]; [5]
  chemical recovery: 31.5 ± 6%

## CC1C(C)(C)C2=C(C(=O)CCC2)C1(C)C (stereo not drawn) [Cashmeran]
[1]; equilibration time (d): 1
  chemical recovery into PDMS: 20.3 ± 6.3%
[1]; equilibration time (d): 3
  chemical recovery into PDMS: 23.2 ± 9.8%
[1]; equilibration time (d): 6
  chemical recovery into PDMS: 17.8 ± 2.9%
[3]; [5]
  chemical recovery: 2.88 ± 2%

## CC(C)Oc1cc(-n2nc(C(C)(C)C)oc2=O)c(Cl)cc1Cl [Oxadiazone]
[1]; equilibration time (d): 1
  chemical recovery into PDMS: 39.1 ± 3.5%
[1]; equilibration time (d): 3
  chemical recovery into PDMS: 40.4 ± 3.1%
[1]; equilibration time (d): 6
  chemical recovery into PDMS: 37.8 ± 2.7%
[3]; [4]
  chemical recovery: 43.6 ± 4.8%
[3]; [5]
  chemical recovery: 34.7 ± 5.2%

## C[C@]12CCC(=O)C=C1CC[C@@H]1[C@@H]2CC[C@@]2(C)[C@H]1CC[C@]2(C)O [17alpha-Methyltestosterone]
[1]; equilibration time (d): 1
  chemical recovery into PDMS: 34.6 ± 2.1%
[1]; equilibration time (d): 3
  chemical recovery into PDMS: 36.4 ± 2.9%
[1]; equilibration time (d): 6
  chemical recovery into PDMS: 37.6 ± 0.76%
[2]; equilibration time (d): 1
  chemical recovery by SPE of plasma: 7.99 ± 6.9%
[2]; equilibration time (d): 3
  chemical recovery by SPE of plasma: 12.4 ± 1.8%
[2]; equilibration time (d): 6
  chemical recovery by SPE of plasma: 7.08 ± 1.2%

## CC1(C)CC(=O)CC(C)(C)N1 [2,2,6,6-Tetramethyl-4 piperidone]
[1]; equilibration time (d): 1
  chemical recovery into PDMS: 0.707 ± 0.49%
[1]; equilibration time (d): 3
  chemical recovery into PDMS: 1.17 ± 0.15%
[1]; equilibration time (d): 6
  chemical recovery into PDMS: 0.677 ± 0.17%
[2]; equilibration time (d): 1
  chemical recovery by SPE of plasma: 2.44 ± 4%
[2]; equilibration time (d): 6
  chemical recovery by SPE of plasma: 1.13 ± 0.92%

## CCOC(=O)NCCOc1ccc(Oc2ccccc2)cc1 [Fenoxycarb]
[1]; equilibration time (d): 1
  chemical recovery into PDMS: 52.1 ± 2.8%
[1]; equilibration time (d): 3
  chemical recovery into PDMS: 54.3 ± 4.4%
[1]; equilibration time (d): 6
  chemical recovery into PDMS: 52.2 ± 7.9%
[3]; [6]
  chemical recovery: 72 ± 7.2%

## CC=CC(=O)N(CC)c1ccccc1C [Crotamiton]
[1]; equilibration time (d): 6
  chemical recovery into PDMS: 36.1 ± 0.56%
[3]; [4]
  chemical recovery: 37 ± 4.8%
[3]; [5]
  chemical recovery: 36.1 ± 7.8%
[3]; [6]
  chemical recovery: 56.3 ± 3.9%

## CC(=O)[C@H]1CC[C@H]2[C@@H]3CCC4=CC(=O)CC[C@]4(C)[C@H]3CC[C@]12C [Progesterone]
[1]; equilibration time (d): 1
  chemical recovery into PDMS: 47.3 ± 3.5%
[1]; equilibration time (d): 3
  chemical recovery into PDMS: 50.6 ± 4.3%
[1]; equilibration time (d): 6
  chemical recovery into PDMS: 48.2 ± 0.51%
[3]; [5]
  chemical recovery: 45.7 ± 9.4%

## N#CSCSc1nc2ccccc2s1 [(Benzothiazol-2-ylthio)methyl thiocyanate]
[1]; equilibration time (d): 1
  chemical recovery into PDMS: 24.8 ± 3.2%
[1]; equilibration time (d): 3
  chemical recovery into PDMS: 11 ± 4%
[1]; equilibration time (d): 6
  chemical recovery into PDMS: 13.3 ± 4.5%
[3]; [5]
  chemical recovery: 33.5 ± 7.2%

## O=C(Nc1ccc(F)cc1)c1cccc(Oc2cccc(C(F)(F)F)c2)n1 [Picolinafen]
[1]; equilibration time (d): 1
  chemical recovery into PDMS: 50.6 ± 4.7%
[1]; equilibration time (d): 3
  chemical recovery into PDMS: 54.1 ± 5.5%
[1]; equilibration time (d): 6
  chemical recovery into PDMS: 50.4 ± 4.1%
[3]; [4]
  chemical recovery: 49.3 ± 14%
[3]; [5]
  chemical recovery: 28.9 ± 6%
[3]; [6]
  chemical recovery: 69.8 ± 6%

## CC(C)(C)c1ccc(CSc2cnn(C(C)(C)C)c(=O)c2Cl)cc1 [Pyridaben]
[1]; equilibration time (d): 1
  chemical recovery into PDMS: 50.4 ± 7.5%
[1]; equilibration time (d): 3
  chemical recovery into PDMS: 49.7 ± 3.6%
[1]; equilibration time (d): 6
  chemical recovery into PDMS: 49.4 ± 2.4%
[3]; [4]
  chemical recovery: 7.91 ± 1.1%

## Nc1ccccc1-c1ccccc1 [2-Aminobiphenyl]
[1]; equilibration time (d): 1
  chemical recovery into PDMS: 14.2 ± 6.8%
[1]; equilibration time (d): 3
  chemical recovery into PDMS: 14 ± 7.3%
[3]; [7]
  chemical recovery: 17.3 ± 3.9%
[3]; [4]
  chemical recovery: 22.6 ± 0.6%
[3]; [5]
  chemical recovery: 27.7 ± 4.4%
[3]; [6]
  chemical recovery: 2.86 ± 5%

## Cl[C@H]1[C@H](Cl)[C@@H](Cl)[C@@H](Cl)[C@H](Cl)[C@H]1Cl [gamma-HCH]
[1]; equilibration time (d): 3
  chemical recovery into PDMS: 57.4 ± 18%
[1]; equilibration time (d): 6
  chemical recovery into PDMS: 58.6 ± 18%
[3]; [5]
  chemical recovery: 9.76 ± 0.99%
[3]; [6]
  chemical recovery: 26.2 ± 8.1%

## O=C(O)C(F)(F)C(F)(F)C(F)(F)C(F)(F)C(F)(F)C(F)(F)F [Perfluoroheptanoic acid]
[1]; equilibration time (d): 1
  chemical recovery into PDMS: 0.0266 ± 0.023%
[1]; equilibration time (d): 3
  chemical recovery into PDMS: 0.00647 ± 0.017%
[1]; equilibration time (d): 6
  chemical recovery into PDMS: 0.0383 ± 0.0028%
[3]; [7]
  chemical recovery: 34.1 ± 2.9%
[3]; [4]
  chemical recovery: 27.1 ± 4.2%
[3]; [5]
  chemical recovery: 39.8 ± 8.7%
[3]; [6]
  chemical recovery: 85.3 ± 16%
